In assay [1] the test system is IL-6. As to the kind of experiment: IL-6 release from LPS-primed, nigericin-treated THP1 macrophages, Hu IL-6 AlphaLISA. In kind it is cell-based. The following applies: Homo sapiens, THP-1; PMA-differentiated THP1, LPS 20 ng/ml 3 hrs, compound 1 hr, Nigericin 6.7 uM 3 hrs, supernatant. A general note: Alpha assays give light when donor and acceptor beads are brought close together.

Assay [2] has as its target NLRP3 inflammasome (Homo sapiens, UniProt Q96P20). The assay is described as follows: NLRP3 inflammasome activation in THP1 macrophages (LPS priming, nigericin), IL-1β AlphaLISA. The following applies: PMA-differentiated THP1, LPS 20 ng/ml 3 hrs, compound 1 hr, Nigericin 6.7 uM 3 hrs, supernatant. In kind it is cell-based.

Where only a bound is given, the exact number is not on record here.

Chain of NLRP3 inflammasome (Q96P20 whole entry): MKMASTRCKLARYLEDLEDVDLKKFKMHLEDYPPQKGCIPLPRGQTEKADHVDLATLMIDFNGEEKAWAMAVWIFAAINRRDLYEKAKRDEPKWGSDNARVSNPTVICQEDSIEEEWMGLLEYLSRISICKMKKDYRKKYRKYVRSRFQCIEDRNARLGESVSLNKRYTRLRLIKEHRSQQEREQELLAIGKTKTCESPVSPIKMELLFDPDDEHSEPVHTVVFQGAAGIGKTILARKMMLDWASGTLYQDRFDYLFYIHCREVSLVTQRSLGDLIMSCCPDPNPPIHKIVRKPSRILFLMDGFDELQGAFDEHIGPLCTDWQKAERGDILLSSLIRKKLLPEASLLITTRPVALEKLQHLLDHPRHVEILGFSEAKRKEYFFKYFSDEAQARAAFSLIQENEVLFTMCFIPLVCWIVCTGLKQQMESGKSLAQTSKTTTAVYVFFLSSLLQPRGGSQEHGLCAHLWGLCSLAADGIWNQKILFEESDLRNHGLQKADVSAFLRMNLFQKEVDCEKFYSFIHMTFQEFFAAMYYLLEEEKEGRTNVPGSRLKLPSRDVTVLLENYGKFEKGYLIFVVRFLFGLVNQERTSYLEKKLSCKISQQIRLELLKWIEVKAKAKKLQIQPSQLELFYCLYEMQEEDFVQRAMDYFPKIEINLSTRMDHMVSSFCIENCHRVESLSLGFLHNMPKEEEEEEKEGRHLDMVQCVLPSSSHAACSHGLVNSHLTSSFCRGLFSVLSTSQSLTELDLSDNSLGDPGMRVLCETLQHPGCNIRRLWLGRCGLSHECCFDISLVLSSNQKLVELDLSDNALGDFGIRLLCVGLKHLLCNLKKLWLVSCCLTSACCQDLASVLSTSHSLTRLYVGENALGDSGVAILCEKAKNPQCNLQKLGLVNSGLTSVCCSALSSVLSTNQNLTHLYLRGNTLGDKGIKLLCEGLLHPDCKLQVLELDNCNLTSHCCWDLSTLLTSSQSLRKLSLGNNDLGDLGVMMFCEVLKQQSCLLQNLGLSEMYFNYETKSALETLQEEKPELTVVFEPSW

In the case of `CCN1CCC[C@@H](Nc2cc(C)c(-c3ccc(C(F)(F)F)cc3)nn2)C1` [compound 1], the results for the concentration for half-maximal inhibition (IC50) in assay [1] and in assay [2] were > 10000 nM and ≤ 10 nM, respectively.
For `Cc1cc(N[C@@H]2CCCN(C)C2)nnc1-c1ccc(C(F)(F)F)cc1` [compound 3, (R)-5-methyl-N-(1-methylpiperidin-3-yl)-6-(4-(trifluoromethyl)phenyl)-pyridazin-3-amine], in that order: 5000 to 10000 nM and 10 to 50 nM.
For `CN1CCC[C@@H](Nc2ccc(-c3ccc(Cl)cc3C(F)(F)F)nn2)C1` [compound 4], in that order: 5000 to 10000 nM and 10 to 50 nM.
On to `Cc1cc(N[C@@H]2CCCN(C)C2)nnc1-c1ccc(C(F)(F)F)cc1F` [compound 6], for which the IC50 in assay [1] is > 10000 nM; in assay [2] it was 10 to 50 nM.
For `Cc1cc(N[C@@H]2CCCN(C)C2)nnc1-c1ccc(OC(F)(F)F)cc1` [compound 7], in that order: > 10000 nM and 10 to 50 nM.
For `COc1cc(C(F)(F)F)ccc1-c1nnc(N[C@@H]2CCCN(C)C2)cc1C` [compound 8], in that order: > 10000 nM and 10 to 50 nM.
For `Cc1cc(C(F)(F)F)ccc1-c1nnc(N[C@@H]2CCCN(C)C2)cc1C` [compound 9] the same measures were 1000 to 5000 nM and 10 to 50 nM.
Consider `CCc1cc(N[C@@H]2CCCN(C)C2)nnc1-c1ccc(C(F)(F)F)cc1` [compound 10], for which the IC50 is 5000 to 10000 nM in assay [1] and 10 to 50 nM in assay [2].
For `Cc1ccc(-c2nnc(N[C@@H]3CCCN(C)C3)cc2C)cc1` [compound 11], in that order: 1000 to 5000 nM and 10 to 50 nM.
For `CCc1ccc(-c2nnc(N[C@@H]3CCCN(C)C3)cc2C)cc1` [compound 12], in that order: > 10000 nM and 10 to 50 nM.
For the compound `Cc1ccc(-c2nnc(N[C@@H]3CCCN(C)C3)cc2C(F)(F)F)cc1` [compound 13], the IC50 in assay [1] is 5000 to 10000 nM; in assay [2], 50 to 100 nM.
For `Cc1c(N[C@@H]2CCCN(C)C2)nnc(-c2ccc(C(F)(F)F)cc2)c1C` [compound 14], in that order: > 10000 nM and 10 to 50 nM.
For `Cc1cc(N[C@@H]2CCCN(CCO)C2)nnc1-c1ccc(C(F)(F)F)cc1` [compound 15, 2-[(3R)-3-[[5-methyl-6-[4-(trifluoromethyl)phenyl]pyridazin-3-yl]amino]-1-piperidyl]ethanol] the same measures were > 10000 nM and 10 to 50 nM.
For `Cc1cc(N[C@@H]2CCCN(C)C2)nnc1-c1ccc(F)cc1` [compound 16], in that order: > 10000 nM and 10 to 50 nM.
For `Cc1cc(N[C@@H]2C[C@@H](F)CN(C)C2)nnc1-c1ccc(C(F)(F)F)cc1` [compound 17], the IC50 in assay [1] was > 10000 nM; in assay [2], 50 to 100 nM.
For `CN1CCC[C@@H](Nc2ccc(-c3ccc(Cl)cc3Cl)nn2)C1` [compound 18] the same measures were 5000 to 10000 nM and 50 to 100 nM.
For `Cc1cc(C(F)(F)F)ccc1-c1ccc(N[C@@H]2CCCN(C)C2)nn1` [compound 19], the IC50 in assay [1] was 5000 to 10000 nM; in assay [2] it was 100 to 500 nM.
As to `CN1CCC[C@@H](Nc2ccc(-c3ccc(C(F)(F)F)cc3Cl)nn2)C1` [compound 20], the IC50 in assay [1] was > 10000 nM; in assay [2] it was 100 to 500 nM.
For `Cc1ccc(-c2ccc(N[C@@H]3CCCN(C)C3)nn2)c(C)c1` [compound 21], in that order: 5000 to 10000 nM and 100 to 500 nM.
For `Cc1cc(N[C@@H]2CCCNC2)nnc1-c1ccc(C(F)(F)F)cc1` [compound 22] the same measures were > 10000 nM and 50 to 100 nM.
For `CC(C)c1cc(N[C@@H]2CCCN(C)C2)nnc1-c1ccc(C(F)(F)F)cc1` [compound 23], in that order: > 10000 nM and 100 to 500 nM.
On to `CCN1CCC[C@@H](Nc2nnc(-c3ccc(C(F)(F)F)cc3)cc2C)C1` [compound 24], for which the IC50 in assay [1] was > 10000 nM; in assay [2] it was 100 to 500 nM.
For `Cc1cc(N[C@@H]2CCCN(CCF)C2)nnc1-c1ccc(C(F)(F)F)cc1` [compound 25], in that order: > 10000 nM and 50 to 100 nM.

A word on the IC50: it is the point on the concentration scale where inhibition reaches its midpoint. A lower IC50 goes with inhibition by little substance.

(Values after US20250074888A1, “PYRIDAZINE DERIVATIVES AS MODULATORS OF NLRP3 INFLAMMASOME AND RELATED METHODS” (Neumora Therapeutics, Inc., priority 2021, published 2025).)
